Test results published in ChEMBL document CHEMBL1201862, “PubChem BioAssay data set” (2004).
Activity calls are given as the source filed them.

Assays:
[1] = target: Phospholipase A2 (Homo sapiens, UniProt P04054); type: functional;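 also: confirmatory dose-response counterscreen on phospholipase A2, testing hits that came from an ultra-high-throughput screen for ATG4B inhibitors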
[2] = target: Cysteine protease ATG4B (Homo sapiens, UniProt Q9Y4P1); type: functional;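 also: Fluorescence-based dose-response confirmation assay measuring inhibition of ATG4B activity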
Cysteine protease ATG4B, sequence (Q9Y4P1 whole entry): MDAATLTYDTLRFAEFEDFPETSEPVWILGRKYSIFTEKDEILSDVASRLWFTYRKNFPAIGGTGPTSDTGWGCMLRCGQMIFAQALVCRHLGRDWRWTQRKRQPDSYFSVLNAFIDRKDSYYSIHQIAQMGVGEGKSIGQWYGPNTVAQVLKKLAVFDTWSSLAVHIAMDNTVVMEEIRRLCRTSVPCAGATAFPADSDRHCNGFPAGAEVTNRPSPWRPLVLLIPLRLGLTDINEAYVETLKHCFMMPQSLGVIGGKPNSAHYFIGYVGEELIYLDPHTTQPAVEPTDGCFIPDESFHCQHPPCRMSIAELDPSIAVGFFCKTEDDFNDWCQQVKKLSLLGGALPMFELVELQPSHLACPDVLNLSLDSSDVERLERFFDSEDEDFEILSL

[3] = target: 5-hydroxytryptamine receptor 5A (Homo sapiens, UniProt P47898); test: Counterscreen for agonists of OPRM1-OPRD1 heterodimerization: luminescence-based cell-based high throughput dose response assay to identify agonists of 5-hydroxytryptamine (serotonin) 5A receptor (HTR5A). [Related pubchem assays (depositor defined):AID504326, AID504355, AID504692, AID504904, AID504905]; type: functional
5-hydroxytryptamine receptor 5A, sequence (P47898 whole entry): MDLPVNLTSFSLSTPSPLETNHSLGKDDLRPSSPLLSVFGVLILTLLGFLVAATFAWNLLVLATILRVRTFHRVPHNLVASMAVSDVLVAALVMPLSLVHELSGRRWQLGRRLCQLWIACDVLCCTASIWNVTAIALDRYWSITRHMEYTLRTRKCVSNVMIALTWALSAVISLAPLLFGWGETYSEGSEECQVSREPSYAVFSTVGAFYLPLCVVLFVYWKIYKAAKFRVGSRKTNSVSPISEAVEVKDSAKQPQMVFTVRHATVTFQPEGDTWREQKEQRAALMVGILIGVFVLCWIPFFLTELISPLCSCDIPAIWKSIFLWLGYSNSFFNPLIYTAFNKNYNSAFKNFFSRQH

[4] = target: Delta-type opioid receptor (Homo sapiens, UniProt P41143); test: Counterscreen for agonists of heterodimerization of the mu 1 (OPRM1) and delta 1 (OPRD1) opioid receptors: Luminescence-based cell-based high throughput dose response assay to identify agonists of OPRD1 homodimerization. [Related pubchem assays (depositor defined):AID504326, AID504355, AID504692, AID504904, AID504905]; type: functional
Delta-type opioid receptor, sequence (P41143 whole entry): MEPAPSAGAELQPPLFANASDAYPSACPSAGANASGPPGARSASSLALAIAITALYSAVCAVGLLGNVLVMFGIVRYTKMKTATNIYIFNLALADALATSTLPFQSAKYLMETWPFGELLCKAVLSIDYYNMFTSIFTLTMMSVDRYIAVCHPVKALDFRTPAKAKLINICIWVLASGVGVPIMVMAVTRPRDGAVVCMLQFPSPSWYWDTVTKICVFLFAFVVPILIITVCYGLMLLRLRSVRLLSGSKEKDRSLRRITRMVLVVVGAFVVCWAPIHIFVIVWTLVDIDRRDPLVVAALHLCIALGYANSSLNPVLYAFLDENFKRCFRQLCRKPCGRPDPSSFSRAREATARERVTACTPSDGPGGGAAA

[5] = target: Mu-type opioid receptor (Homo sapiens, UniProt P35372); test: Counterscreen for agonists of heterodimerization of the mu 1 (OPRM1) and delta 1 (OPRD1) opioid receptors: Luminescence-based cell-based high throughput dose response assay to identify agonists of OPRM1 homodimerization.; type: functional;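 also: U2OS cells expressing OPRM1 and beta-arrestin as split beta-galactosidase partners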
Mu-type opioid receptor, sequence (P35372 whole entry): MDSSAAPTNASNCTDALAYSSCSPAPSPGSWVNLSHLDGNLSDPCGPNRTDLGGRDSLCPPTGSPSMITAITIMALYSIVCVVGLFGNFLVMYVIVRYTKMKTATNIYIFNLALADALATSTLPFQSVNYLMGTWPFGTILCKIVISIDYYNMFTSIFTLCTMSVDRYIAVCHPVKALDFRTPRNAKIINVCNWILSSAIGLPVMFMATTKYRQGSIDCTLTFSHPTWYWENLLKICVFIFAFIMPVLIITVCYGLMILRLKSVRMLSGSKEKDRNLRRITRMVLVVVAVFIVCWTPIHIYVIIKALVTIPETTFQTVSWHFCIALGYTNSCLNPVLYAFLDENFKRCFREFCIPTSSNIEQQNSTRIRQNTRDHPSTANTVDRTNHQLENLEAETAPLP

[6] = target: T1, CAAX prenyl protease 2 (Saccharomyces cerevisiae S288c, UniProt Q03530); type: biochemical
T1 sequence (Q03530 whole entry): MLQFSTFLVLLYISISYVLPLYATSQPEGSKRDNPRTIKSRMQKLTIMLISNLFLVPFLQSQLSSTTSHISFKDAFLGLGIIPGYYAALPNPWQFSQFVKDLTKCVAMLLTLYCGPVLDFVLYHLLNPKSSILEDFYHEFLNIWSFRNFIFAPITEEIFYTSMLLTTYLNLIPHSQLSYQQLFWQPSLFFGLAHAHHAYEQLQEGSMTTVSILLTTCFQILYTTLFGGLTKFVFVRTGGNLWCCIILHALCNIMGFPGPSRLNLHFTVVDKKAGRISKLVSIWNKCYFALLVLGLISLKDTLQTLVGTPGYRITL

[7] = inhibitors of intracellular T. cruzi replication, confirmation, NIH3T3 host cells, beta-gal luminescence (AID 2044); type: functional, cell-based;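 also: intracellular parasites grown in NIH/3T3 mouse fibroblasts as host cells; luminescent beta-galactosidase reporter signal from transgenic T. cruzi replicating inside host cells; inhibitors lower the luminescence signal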
[8] = cytotoxicity toward NIH3T3 fibroblasts, dose response, counter-screen, cell-based, ATP luminescence, mouse fibroblasts (AID 2010); type: functional;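 also: cells exposed to compound for about 90 hours before reading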
[9] = target: CAAX prenyl protease 2 (Homo sapiens, UniProt Q9Y256); test: human Rce1 protease inhibitors, dose response, biochemical, yeast membranes, quenched-peptide fluorescence, cherry-pick (AID 588849)
CAAX prenyl protease 2 (Homo sapiens, UniProt Q9Y256), sequence (Q9Y256 whole entry): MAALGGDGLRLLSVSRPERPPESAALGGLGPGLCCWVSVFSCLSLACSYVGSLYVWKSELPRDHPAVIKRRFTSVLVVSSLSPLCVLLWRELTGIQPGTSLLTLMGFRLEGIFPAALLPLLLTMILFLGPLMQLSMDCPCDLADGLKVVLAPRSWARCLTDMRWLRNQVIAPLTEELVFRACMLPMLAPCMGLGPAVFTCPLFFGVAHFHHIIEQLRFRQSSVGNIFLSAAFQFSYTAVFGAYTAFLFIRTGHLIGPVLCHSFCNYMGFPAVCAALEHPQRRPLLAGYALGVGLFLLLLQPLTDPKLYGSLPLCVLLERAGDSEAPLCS

[10] = test system: Candida albicans; test: fluconazole resistance reversal in C. albicans, dose response, CaCi-2 strain, Alamar Blue, dry powder, set 4 (AID 488943); type: functional, organism-based
[11] = test system: Candida albicans; test: growth inhibition of azole-resistant C. albicans, dose response, CaCi-8 strain, Alamar Blue, dry powder, set 3 (AID 488905); type: functional, organism-based
[12] = test system: Candida albicans; test: reversal of fluconazole resistance in C. albicans, dose response, CaCi-2 strain, Alamar Blue, dry powder, set 3 (AID 488907); type: functional, organism-based
[13] = test system: Candida albicans; test: growth inhibition of resistant C. albicans, dose response, CaCi-8 strain, fluconazole, dry powder, set 4 (AID 488950); type: functional, organism-based
[14] = NIH-3T3 fibroblast cytotoxicity, dose response, cytotoxicity control, cell-based, fluorescence, Alamar Blue, secondary assay (AID 2327); type: functional;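 also: NIH-3T3 mouse fibroblasts cultured with fluconazole at 8 µg/mL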
[15] = target: Envelope glycoprotein gp160 (Human immunodeficiency virus 1, UniProt Q6QLK5); test: inhibitors of HIV fusion peptide binding, primary screen, biochemical, uHTS, fluorescence dequenching (AID 1986)
Envelope glycoprotein gp160, sequence (Q6QLK5 whole entry, the tested form may be a part): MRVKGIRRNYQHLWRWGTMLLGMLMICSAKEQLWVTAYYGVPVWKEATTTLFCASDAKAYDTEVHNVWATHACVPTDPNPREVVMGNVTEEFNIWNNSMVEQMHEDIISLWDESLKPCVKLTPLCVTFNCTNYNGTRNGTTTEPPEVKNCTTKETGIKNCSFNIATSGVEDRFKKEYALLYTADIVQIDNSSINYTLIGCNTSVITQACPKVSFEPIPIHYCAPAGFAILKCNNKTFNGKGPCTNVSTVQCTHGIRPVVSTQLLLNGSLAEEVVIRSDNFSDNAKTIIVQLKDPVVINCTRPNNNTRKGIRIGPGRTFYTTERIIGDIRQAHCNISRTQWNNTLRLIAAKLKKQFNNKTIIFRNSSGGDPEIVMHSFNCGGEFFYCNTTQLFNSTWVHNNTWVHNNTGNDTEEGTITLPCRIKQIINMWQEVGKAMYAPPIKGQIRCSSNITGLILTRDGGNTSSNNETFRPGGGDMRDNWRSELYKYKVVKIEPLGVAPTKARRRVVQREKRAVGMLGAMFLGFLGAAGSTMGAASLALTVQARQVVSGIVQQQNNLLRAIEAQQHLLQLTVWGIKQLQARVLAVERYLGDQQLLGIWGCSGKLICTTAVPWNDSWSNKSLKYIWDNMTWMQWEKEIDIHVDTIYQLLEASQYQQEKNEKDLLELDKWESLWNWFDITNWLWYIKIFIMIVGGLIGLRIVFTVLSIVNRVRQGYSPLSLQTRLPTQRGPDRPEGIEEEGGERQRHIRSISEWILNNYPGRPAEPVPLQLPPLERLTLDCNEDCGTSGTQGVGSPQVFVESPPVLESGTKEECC

[16] = C. albicans growth with fluconazole, confirmation, fluorescence, retest (AID 2467); type: functional, cell-based
[17] = target: T2, Short transient receptor potential channel 4 (Mus musculus, UniProt Q9QUQ5); test: mouse TRPC4 channel inhibitors, dose response, cell-based, HEK293 TRPC4/mu-opioid, Fluo-4 calcium (AID 434942); type: functional;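 also: potency of inhibitors blocking the TRPC4 calcium response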
T2 sequence (Q9QUQ5 whole entry): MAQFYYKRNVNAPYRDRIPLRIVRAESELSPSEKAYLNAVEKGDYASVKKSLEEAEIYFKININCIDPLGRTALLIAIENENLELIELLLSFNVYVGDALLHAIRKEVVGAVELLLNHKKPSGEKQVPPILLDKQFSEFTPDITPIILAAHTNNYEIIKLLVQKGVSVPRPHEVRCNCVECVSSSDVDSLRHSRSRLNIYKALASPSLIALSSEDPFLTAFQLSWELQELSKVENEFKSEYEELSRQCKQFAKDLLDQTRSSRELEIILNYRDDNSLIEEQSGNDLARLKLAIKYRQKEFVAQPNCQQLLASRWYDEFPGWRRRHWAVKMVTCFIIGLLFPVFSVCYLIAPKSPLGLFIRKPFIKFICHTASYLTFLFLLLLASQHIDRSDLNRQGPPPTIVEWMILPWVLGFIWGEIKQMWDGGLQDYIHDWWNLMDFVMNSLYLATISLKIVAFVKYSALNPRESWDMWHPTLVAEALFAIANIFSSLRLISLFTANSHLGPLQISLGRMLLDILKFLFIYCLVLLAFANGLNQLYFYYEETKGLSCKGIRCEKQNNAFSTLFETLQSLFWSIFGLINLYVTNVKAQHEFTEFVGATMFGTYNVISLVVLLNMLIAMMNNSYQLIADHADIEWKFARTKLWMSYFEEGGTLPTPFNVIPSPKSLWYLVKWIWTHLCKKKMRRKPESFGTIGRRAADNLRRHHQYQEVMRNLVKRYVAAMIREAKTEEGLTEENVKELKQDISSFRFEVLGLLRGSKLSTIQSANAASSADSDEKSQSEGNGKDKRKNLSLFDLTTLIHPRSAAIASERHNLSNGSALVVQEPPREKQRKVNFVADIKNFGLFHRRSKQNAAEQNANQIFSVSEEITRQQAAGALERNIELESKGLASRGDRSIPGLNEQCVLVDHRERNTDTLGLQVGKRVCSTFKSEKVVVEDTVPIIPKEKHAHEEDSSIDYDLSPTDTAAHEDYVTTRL

[18] = test system: Vero; test: Vero cell cytotoxicity, cytotoxicity control for flavivirus capping enzyme inhibitors (AID 588742); type: functional; settings: Chlorocebus sabaeus
[19] = target: Genome polyprotein (dengue virus type 2, UniProt P29990); test: Dengue-2 NS5 methyltransferase inhibitors, primary screen, biochemical, confirmation dose response (AID 588689); type: functional
Genome polyprotein, sequence (P29990 2492-3391 limits assumed): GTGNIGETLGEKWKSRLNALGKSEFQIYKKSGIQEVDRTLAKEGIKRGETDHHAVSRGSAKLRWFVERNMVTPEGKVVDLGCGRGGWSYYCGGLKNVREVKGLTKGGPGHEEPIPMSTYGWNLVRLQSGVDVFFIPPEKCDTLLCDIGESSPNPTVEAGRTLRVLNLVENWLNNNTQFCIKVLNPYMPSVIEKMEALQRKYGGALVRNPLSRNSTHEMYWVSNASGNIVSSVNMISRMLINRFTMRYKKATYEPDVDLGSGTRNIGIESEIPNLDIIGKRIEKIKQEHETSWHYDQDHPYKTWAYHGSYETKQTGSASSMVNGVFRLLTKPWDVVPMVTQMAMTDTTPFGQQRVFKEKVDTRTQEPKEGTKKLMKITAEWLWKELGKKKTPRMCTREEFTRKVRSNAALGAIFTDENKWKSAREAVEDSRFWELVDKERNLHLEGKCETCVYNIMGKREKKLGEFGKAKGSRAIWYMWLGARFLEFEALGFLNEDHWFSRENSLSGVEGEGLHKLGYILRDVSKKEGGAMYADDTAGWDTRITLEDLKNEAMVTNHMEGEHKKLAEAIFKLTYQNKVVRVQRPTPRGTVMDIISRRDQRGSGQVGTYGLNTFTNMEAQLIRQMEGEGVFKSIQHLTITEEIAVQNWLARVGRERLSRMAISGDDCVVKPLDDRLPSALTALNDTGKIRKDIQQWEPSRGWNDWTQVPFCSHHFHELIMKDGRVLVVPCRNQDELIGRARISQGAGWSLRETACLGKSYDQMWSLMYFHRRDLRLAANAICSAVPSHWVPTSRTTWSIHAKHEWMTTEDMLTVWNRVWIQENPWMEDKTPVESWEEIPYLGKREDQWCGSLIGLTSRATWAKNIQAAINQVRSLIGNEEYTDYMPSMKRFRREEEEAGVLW

[20] = target: Voltage-gated inwardly rectifying potassium channel KCNH2 (Homo sapiens, UniProt Q12809); settings: Potency;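 also: confirmatory quantitative high-throughput screen measuring inhibition of hERG channel activity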
[21] = target: T3, Hexokinase HKDC1 (Homo sapiens, UniProt Q2TB90); test: SAR analysis of small molecule inhibitors of hexokinase domain containing I (HKDC1). [Related pubchem assays (depositor defined):AID493160, AID493190]; type: functional
T3 sequence (Q2TB90 whole entry): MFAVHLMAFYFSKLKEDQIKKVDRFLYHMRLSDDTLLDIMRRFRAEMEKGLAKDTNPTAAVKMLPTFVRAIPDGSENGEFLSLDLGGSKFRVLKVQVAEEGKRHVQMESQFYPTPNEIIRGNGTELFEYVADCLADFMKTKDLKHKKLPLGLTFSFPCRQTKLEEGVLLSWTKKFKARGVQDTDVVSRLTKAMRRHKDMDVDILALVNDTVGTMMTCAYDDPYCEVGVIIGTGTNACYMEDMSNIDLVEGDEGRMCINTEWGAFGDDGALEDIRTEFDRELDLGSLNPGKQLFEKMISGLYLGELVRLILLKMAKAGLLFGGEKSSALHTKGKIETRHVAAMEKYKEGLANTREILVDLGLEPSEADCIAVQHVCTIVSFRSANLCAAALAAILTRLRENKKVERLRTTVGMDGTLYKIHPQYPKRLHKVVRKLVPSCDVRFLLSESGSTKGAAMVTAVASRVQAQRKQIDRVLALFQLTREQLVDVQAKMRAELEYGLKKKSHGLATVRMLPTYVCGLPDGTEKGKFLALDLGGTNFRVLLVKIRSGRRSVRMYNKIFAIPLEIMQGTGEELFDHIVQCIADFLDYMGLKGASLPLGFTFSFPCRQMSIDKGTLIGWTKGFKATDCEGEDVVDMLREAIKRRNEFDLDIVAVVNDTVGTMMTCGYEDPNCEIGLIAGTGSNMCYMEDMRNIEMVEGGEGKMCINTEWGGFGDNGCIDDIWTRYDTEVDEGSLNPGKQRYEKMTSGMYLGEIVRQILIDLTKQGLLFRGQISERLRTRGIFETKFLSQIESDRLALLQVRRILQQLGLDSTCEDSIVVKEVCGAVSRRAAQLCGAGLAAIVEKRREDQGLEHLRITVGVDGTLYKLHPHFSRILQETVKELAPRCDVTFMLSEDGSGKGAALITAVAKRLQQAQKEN

[22] = target: Hexokinase-1 (Homo sapiens, UniProt P19367); test: SAR analysis of small molecule inhibitors of hexokinase domain containing I (HKDC1) in the hexokinase 1 selectivity assay. [Related pubchem assays (depositor defined):AID493160, AID493190]; type: functional
Hexokinase-1, sequence (P19367 whole entry, the tested form may be a part): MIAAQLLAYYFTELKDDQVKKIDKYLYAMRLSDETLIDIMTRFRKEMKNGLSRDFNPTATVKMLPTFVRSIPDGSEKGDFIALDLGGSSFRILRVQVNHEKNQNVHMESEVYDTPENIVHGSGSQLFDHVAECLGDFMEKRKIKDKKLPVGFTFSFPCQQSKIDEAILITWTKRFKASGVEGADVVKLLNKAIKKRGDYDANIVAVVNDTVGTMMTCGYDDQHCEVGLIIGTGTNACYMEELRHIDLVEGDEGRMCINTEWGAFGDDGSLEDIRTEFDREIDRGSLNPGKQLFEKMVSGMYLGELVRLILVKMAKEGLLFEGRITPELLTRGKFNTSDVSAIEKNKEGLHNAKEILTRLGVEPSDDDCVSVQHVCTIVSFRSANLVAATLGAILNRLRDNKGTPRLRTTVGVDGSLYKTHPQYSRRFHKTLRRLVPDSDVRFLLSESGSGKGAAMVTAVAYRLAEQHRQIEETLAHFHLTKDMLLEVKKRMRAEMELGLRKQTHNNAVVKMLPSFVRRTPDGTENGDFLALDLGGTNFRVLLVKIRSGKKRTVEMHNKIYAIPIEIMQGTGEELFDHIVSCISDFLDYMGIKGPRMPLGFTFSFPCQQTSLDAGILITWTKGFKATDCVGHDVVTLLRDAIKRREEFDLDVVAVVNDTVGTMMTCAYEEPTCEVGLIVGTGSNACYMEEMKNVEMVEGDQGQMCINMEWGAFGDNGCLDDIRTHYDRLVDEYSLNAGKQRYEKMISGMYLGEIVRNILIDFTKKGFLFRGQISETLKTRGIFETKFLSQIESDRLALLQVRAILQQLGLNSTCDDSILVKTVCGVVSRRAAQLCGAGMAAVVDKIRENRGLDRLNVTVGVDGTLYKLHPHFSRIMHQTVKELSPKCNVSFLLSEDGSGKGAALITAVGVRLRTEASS

[23] = target: Dual specificity protein phosphatase 3 (Homo sapiens, UniProt P51452); test: SAR VHR1 Fluorescent Assay for In Vitro dose response studies Set 3. [Related pubchem assays (depositor defined):AID1654, AID1661, AID1878]; type: functional
Dual specificity protein phosphatase 3, sequence (P51452 whole entry): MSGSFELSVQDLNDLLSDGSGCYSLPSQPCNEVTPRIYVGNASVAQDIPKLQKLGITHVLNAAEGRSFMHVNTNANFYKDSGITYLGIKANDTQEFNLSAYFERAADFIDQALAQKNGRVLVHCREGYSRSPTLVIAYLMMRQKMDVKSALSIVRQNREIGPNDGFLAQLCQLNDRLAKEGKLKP

[24] = target: T4, Bcl-2-related protein A1 (Mus musculus, UniProt Q07440); type: functional;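 also: confirmatory dose–response counterscreen on Bfl-1, used to check hits from a UBC13 polyubiquitin inhibitor campaign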
T4 sequence (Q07440 whole entry): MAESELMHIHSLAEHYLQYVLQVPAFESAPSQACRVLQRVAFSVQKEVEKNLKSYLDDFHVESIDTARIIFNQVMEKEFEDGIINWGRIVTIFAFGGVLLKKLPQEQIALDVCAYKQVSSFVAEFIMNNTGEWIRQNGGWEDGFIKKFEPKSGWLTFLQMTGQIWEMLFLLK

[25] = cytotoxicity in HEK-293T NF-kB-Luc cells, dose response, cytotoxicity control for B/T-cell NF-kB inhibitor project, cell-based, uHTS hits (AID 489019); type: functional;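 also: IC50 reflects cytotoxicity as loss of cell viability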
[26] = target: T5, Ubiquitin-conjugating enzyme E2 N (Homo sapiens, UniProt P61088); type: functional
T5 sequence (P61088 whole entry): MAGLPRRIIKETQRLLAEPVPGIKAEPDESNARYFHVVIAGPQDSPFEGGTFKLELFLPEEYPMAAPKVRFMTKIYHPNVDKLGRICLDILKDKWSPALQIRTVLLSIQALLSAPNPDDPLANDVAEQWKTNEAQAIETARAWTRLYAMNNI

[27] = test system: INS1; test: beta cell apoptosis inhibitors, cytokine rescue, dose response, luminescence, retest (AID 449756); type: functional, cell-based; settings: Rattus norvegicus;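 also: cell death triggered by IL-1 beta plus TNF-alpha plus IFN-gamma mixture; protective hits raise ATP signal compared with cytokine alone wells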
[28] = microbe, parasite or virus in culture; type: functional; settings: Mycobacterium tuberculosis
[29] = test system: Jurkat; test: antigen receptor-induced NF-kB inhibitors, dose response, Jurkat, luciferase reporter, luminescence, B- and T-cell (AID 489004); type: functional, cell-based; settings: Homo sapiens;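 also: NF-kB luciferase reporter Jurkat cells stimulated with PMA plus ionomycin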
[30] = target: T5, Ubiquitin-conjugating enzyme E2 N; type: functional; remark: listed apart in the source

Phospholipase A2, sequence (P04054 whole entry): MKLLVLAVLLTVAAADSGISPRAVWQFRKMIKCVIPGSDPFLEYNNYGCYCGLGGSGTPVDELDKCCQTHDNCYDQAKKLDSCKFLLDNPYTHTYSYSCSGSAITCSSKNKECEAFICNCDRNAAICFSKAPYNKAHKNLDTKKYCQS

## Cc1ccc(C(=O)NC(=S)Nc2ccccc2C(F)(F)F)cc1C
[1]
  IC50: 6.91 µM (active)
[2]
  IC50: 14.6 µM (active)

## CCN(Cc1ccccc1)S(=O)(=O)c1ccc(C(=O)N(CCCN(C)C)c2nc3c(C)c(C)ccc3s2)cc1
[3]
  EC50: > 92.4 µM (inactive)
[4]
  EC50: 78.9 µM (inactive)
[5]
  EC50: 56.3 µM (inactive)
[6]
  AC50: 11.6 µM (active)
[7]
  EC50: 0.373 µM (active)
[8]
  EC50: 5.55 µM (active)
[9]
  AC50: 18.9 µM (active)

## O=C(c1ccc(Cl)cc1)N1CCN(c2ncccn2)CC1
[10]
  AC50: 3.81 µM (active)
[11]
  AC50: 17.6 µM (active)
[12]
  AC50: 0.57 µM (active)
[13]
  AC50: 2.91 µM (active)

## CCc1ccc(/C=C2/SC(=S)N(CCCC(=O)Nc3ccccc3C(=O)O)C2=O)cc1
[14]
  EC50: 14 µM (inconclusive)
[15]
  IC50: > 99 µM (inactive)
[16]
  EC50: 4.17 µM (active)
[17]
  EC50: 4.22 µM (active)
[18]
  CC50: > 40 µM (active)
[19]
  IC50: 31.4 µM (active)

## c1ccc(P(c2ccccc2)c2ccccc2)cc1
[20]
  AC50: 14.1 µM (inconclusive)

## O=C(Nc1cccc(C(F)(F)F)c1)c1cccc(NC(=O)c2ccc3nccnc3c2)c1
[21]
  IC50: > 80 µM (inactive)
[22]
  IC50: > 80 µM (inactive)

## COc1cccc2sc(Nc3nnc(-c4ccccc4)o3)nc12
[23]
  IC50: 12 µM (active)

## CCC(C)(C)c1ccc(OCCCC[n+]2ccc(C)cc2)c(C(C)(C)CC)c1
[14]
  EC50: > 160 µM (inactive)
[24]
  IC50: > 20 µM (inactive)
[25]
  IC50: 62.2 µM (inactive)
[16]
  EC50: 0.344 µM (active)
[26]
  IC50: > 20 µM (inactive)
[27]
  AC50: 1.26 µM (active)
[28]
  CC50: > 40 µM (active)
[29]
  IC50: 4.32 µM (active)
[30]
  IC50: 12.6 µM (active)
